Test results: patent publication US11098058B2, “Bicyclic ketone compounds and methods of use thereof” (Genentech, Inc., priority 2017, dated 2021)

Biological target: T1, human RIP1 kinase domain (2-375) (Homo sapiens (Human), UniProt Q13546)
Assay: not given
Conditions: RIP1 kinase inhibition, tight-binding apparent Ki; 50 nM enzyme, 50 μM ATP, 2 hours incubation

T1 sequence (Q13546 2-375): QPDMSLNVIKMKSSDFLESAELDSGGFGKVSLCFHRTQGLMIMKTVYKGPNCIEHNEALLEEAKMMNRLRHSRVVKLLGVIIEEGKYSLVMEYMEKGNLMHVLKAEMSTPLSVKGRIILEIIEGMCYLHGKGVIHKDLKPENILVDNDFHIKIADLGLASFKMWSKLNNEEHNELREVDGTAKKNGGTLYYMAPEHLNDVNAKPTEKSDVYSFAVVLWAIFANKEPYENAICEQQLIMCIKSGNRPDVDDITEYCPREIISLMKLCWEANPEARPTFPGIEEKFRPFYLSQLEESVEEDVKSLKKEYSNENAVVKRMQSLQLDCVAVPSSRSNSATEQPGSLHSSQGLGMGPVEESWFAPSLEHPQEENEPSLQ

| Ki [nM] | SMILES |
| --- | --- |
| 560 | O=C(c1nc2n(n1)[C@H](c1ccccc1)C[C@H]2Cl)C1CC1 (single isomer, unassigned) [Example 117] |
| 110 | O=C(c1nc2n(n1)[C@H](c1ccccc1)C[C@@H]2F)C1(c2ccccn2)CC1 (single isomer, unassigned) [Example 98] |
| 3.7 | N#CCC1(C(=O)c2nc3n(n2)[C@H](c2ccccc2)C[C@@H]3F)CC1 (single isomer, unassigned) [Example 83] |
| 3.6 | O=C(c1nc2n(n1)[C@H](c1c(F)ccc(F)c1F)C[C@@H]2F)C1CC1 (single isomer, unassigned) [Example 102] |
| 780 | O=C(c1nc2n(n1)[C@@H](c1ccccc1)C[C@H]2F)C1CC(F)(F)C1 (single isomer, unassigned) [Example 64] |
| 20 | COc1cccc([C@@H]2C[C@H](F)c3nc(C(=O)C4CC4)nn32)c1 (single isomer, unassigned) [Example 156] |
| 9 | O=C(c1nc2n(n1)[C@H](c1ccc(F)cc1)C[C@@H]2F)C1CC1 (single isomer, unassigned) [Example 85] |

Same assay, conditions: tight-binding apparent inhibition constant (Ki app, Morrison equation); 50 nM enzyme, 50 μM ATP, 2 hours incubation

| Ki [nM] | SMILES |
| --- | --- |
| > 10000 | CC1(C(=O)c2nc3n(n2)[C@@H](c2ccccc2)C[C@H]3F)COC1 (single isomer, unassigned) [Example 55] |
| 14.3 | CC(C)C(=O)c1nc2n(n1)C(c1ccccc1)CC2F (stereo not shown) [Example 45, 1-(7-fluoro-5-phenyl-6,7-dihydro-5H-pyrrolo[1,2-b][1,2,4]triazol-2-yl)-2-methyl-propan-1-one] |

Biological target: T1, human RIP1 kinase domain (2-375)
Assay: biochemical
Conditions: RIP1 kinase inhibition, tight-binding apparent Ki, 50 nM enzyme, 50 μM ATP, 2 hours incubation

| SMILES | Ki [nM] |
| --- | --- |
| [2H][C@@]1(Cl)C[C@@H](c2ccccc2)n2nc(C(=O)C3CC3)nc21 (racemic) [Example 120, cyclopropyl-[rac-(5S,7R)-7-chloro-7-deuterio-5-phenyl-5,6-dihydropyrrolo[1,2-b][1,2,4]triazol-2-yl]methanone] | 910 |
| O=C(COC(F)(F)F)c1nc2n(n1)[C@H](c1ccccc1)C[C@@H]2F (racemic) [Example 142, 1-[rac-(5S,7S)-7-fluoro-5-phenyl-6,7-dihydro-5H-pyrrolo[1,2-b][1,2,4]triazol-2-yl]-2-(trifluoromethoxy)ethanone] | 9 |
| O=C(c1nc2n(n1)[C@H](c1ccccc1)C[C@@H]2F)[C@H]1C[C@@H]1C(F)(F)F (racemic) [Example 160, [rac-(5S,7S)-7-fluoro-5-phenyl-6,7-dihydro-5H-pyrrolo[1,2-b][1,2,4]triazol-2-yl]-[rac-(1S,2S)-2-(trifluoromethyl)cyclopropyl]methanone] | 3 |
| CC(F)(F)[C@@H]1C[C@H](F)c2nc(C(=O)C3CC3)nn21 (racemic) [Example 122, cyclopropyl-[rac-(5S,7S)-5-(1,1-difluoroethyl)-7-fluoro-6,7-dihydro-5H-pyrrolo[1,2-b][1,2,4]triazol-2-yl]methanone] | 360 |
| O=C(c1nc2n(n1)[C@H](c1ccccc1)C[C@@H]2F)[C@@H]1C[C@H]1C(F)(F)F (racemic) [Example 161, [rac-(5S,7S)-7-fluoro-5-phenyl-6,7-dihydro-5H-pyrrolo[1,2-b][1,2,4]triazol-2-yl]-[rac-(1R,2R)-2-(trifluoromethyl)cyclopropyl]methanone] | 50 |
| [2H][C@]1(Cl)C[C@@H](c2ccccc2)n2nc(C(=O)C3CC3)nc21 (racemic) [Example 119, cyclopropyl-[rac-(5S,7S)-7-chloro-7-deuterio-5-phenyl-5,6-dihydropyrrolo[1,2-b][1,2,4]triazol-2-yl]methanone] | 36 |
| [2H]C1([2H])C[C@@H](c2ccccc2)n2nc(C(=O)C3CC3)nc21 (single isomer, unassigned) [Example 114] | 18 |
| O=C(CC1CCCCO1)c1nc2n(n1)[C@H](c1ccccc1)C[C@@H]2F (mixture of isomers) [Example 135, 1-[rac-(5S,7S)-7-fluoro-5-phenyl-6,7-dihydro-5H-pyrrolo[1,2-b][1,2,4]triazol-2-yl]-2-tetrahydropyran-2-yl-ethanone] | 180 |
| [2H][C@]1(F)C[C@@H](c2ccccc2)n2nc(C(=O)C3CC3)nc21 (single isomer, unassigned) [Example 103] | 7.9 |

More lines, now with the values ahead:

| Ki [nM] | SMILES |
| --- | --- |
| < 5 | C[C@@]1(C(=O)c2nc3n(n2)[C@H](c2ccccc2)C[C@@H]3F)CCOC1 (racemic) [Example 137, [rac-(5S,7S)-7-fluoro-5-phenyl-6,7-dihydro-5H-pyrrolo[1,2-b][1,2,4]triazol-2-yl]-[rac-(3R)-3-methyltetrahydrofuran-3-yl]methanone] |
| < 5 | C[C@]1(C(=O)c2nc3n(n2)[C@H](c2ccccc2)C[C@@H]3F)CCOC1 (racemic) [Example 138, [rac-(5S,7S)-7-fluoro-5-phenyl-6,7-dihydro-5H-pyrrolo[1,2-b][1,2,4]triazol-2-yl]-[rac-(3S)-3-methyltetrahydrofuran-3-yl]methanone] |
| 8 | O=C(c1nc2n(n1)[C@H](c1ccccc1)C[C@@H]2F)C1CCOC1 (mixture of isomers) [Example 130, [rac-(5S,7S)-7-fluoro-5-phenyl-6,7-dihydro-5H-pyrrolo[1,2-b][1,2,4]triazol-2-yl]-tetrahydrofuran-3-yl-methanone] |
| 47 | CC1(C(=O)c2nc3n(n2)[C@H](c2ccccc2)C[C@@H]3F)CCCO1 (mixture of isomers) [Example 129, (2-methyltetrahydrofuran-2-yl)-[rac-(5S,7S)-7-fluoro-5-phenyl-6,7-dihydro-5H-pyrrolo[1,2-b][1,2,4]triazol-2-yl]methanone] |
| 3.7 | C[C@H]1C[C@@H]1C(=O)c1nc2n(n1)[C@H](c1ccccc1)C[C@@H]2F (mixture of isomers) [Example 75, [(5S,7S)-7-fluoro-5-phenyl-6,7-dihydro-5H-pyrrolo[1,2-b][1,2,4]triazol-2-yl]-[rac-(1S,2S)-2-methylcyclopropyl]methanone] |
| < 5 | O=C(c1nc2n(n1)[C@H](c1ccccc1)C[C@@H]2F)[C@@]12COC[C@@H]1C2 (racemic) [Example 143, [rac-(5S,7S)-7-fluoro-5-phenyl-6,7-dihydro-5H-pyrrolo[1,2-b][1,2,4]triazol-2-yl]-[rac-(1R,5R)-3-oxabicyclo[3.1.0]hexan-1-yl]methanone] |
| < 5 | O=C(c1nc2n(n1)[C@H](c1ccccc1)C[C@@H]2F)[C@H]1CCOC1 (racemic) [Example 131, [rac-(5S,7S)-7-fluoro-5-phenyl-6,7-dihydro-5H-pyrrolo[1,2-b][1,2,4]triazol-2-yl]-[rac-(3S)-tetrahydrofuran-3-yl]methanone] |

Same assay, conditions: tight-binding apparent inhibition constant (Ki app, Morrison equation), 50 nM enzyme, 50 μM ATP, 2 hours incubation

| SMILES | Ki [nM] |
| --- | --- |
| CC(C)(O)C(=O)c1nc2n(n1)[C@@H](c1ccccc1)C[C@H]2F (stereo in doubt) [Example 5, 2-hydroxy-2-methyl-1-[rac-(5R,7R)-7-fluoro-5-phenyl-6,7-dihydro-5H-pyrrolo[1,2-b][1,2,4]triazol-2-yl]propan-1-one] | 23 |
| O=C(c1ccccc1)c1nc2n(n1)[C@H](c1ccccc1)C[C@@H]2F (racemic) [Example 12, phenyl-[rac-(5S,7S)-7-fluoro-5-phenyl-6,7-dihydro-5H-pyrrolo[1,2-b][1,2,4]triazol-2-yl]methanone] | 21.2 |
| O=C(c1nc2n(n1)[C@H](c1ccccc1)C[C@@H]2F)C1C2COCC21 (mixture of isomers) [Example 56, 3-oxabicyclo[3.1.0]hexan-6-yl-[rac-(5S,7S)-7-fluoro-5-phenyl-6,7-dihydro-5H-pyrrolo[1,2-b][1,2,4]triazol-2-yl]methanone] | 221 |
| O=C(c1nc2n(n1)[C@H](c1ccccc1)C[C@@H]2F)c1cccs1 (racemic) [Example 41, (rac-(5S,7S)-7-fluoro-5-phenyl-6,7-dihydro-5H-pyrrolo[1,2-b][1,2,4]triazol-2-yl)-(2-thienyl)methanone] | 26.7 |
| Cn1cc(C(=O)c2nc3n(n2)[C@@H](c2ccccc2)C[C@H]3F)cn1 (stereo in doubt) [Example 39, (1-methylpyrazol-4-yl)-[rac-(5R,7R)-7-fluoro-5-phenyl-6,7-dihydro-5H-pyrrolo[1,2-b][1,2,4]triazol-2-yl]methanone] | 225 |
| CCC(=O)c1nc2n(n1)[C@H](c1ccccc1)[C@@H](F)C2 (racemic) [Example 32, 1-[rac-(5R,6S)-6-fluoro-5-phenyl-6,7-dihydro-5H-pyrrolo[1,2-b][1,2,4]triazol-2-yl]propan-1-one] | 737 |

Further lines, results first:

| Ki [nM] | SMILES |
| --- | --- |
| 11.2 | O=C(c1nc2n(n1)[C@H](c1ccccc1)C[C@@H]2F)C1(C(F)(F)F)CC1 (racemic) [Example 14, (rac-(5S,7S)-7-fluoro-5-phenyl-6,7-dihydro-5H-pyrrolo[1,2-b][1,2,4]triazol-2-yl)-[1-(trifluoromethyl)cyclopropyl]methanone] |
| 30 | CC1(C(=O)c2nc3n(n2)[C@H](c2ccccc2)C[C@@H]3F)COC1 (racemic) [Example 15, (rac-(5S,7S)-7-fluoro-5-phenyl-6,7-dihydro-5H-pyrrolo[1,2-b][1,2,4]triazol-2-yl)-(3-methyloxetan-3-yl)methanone] |
| 193 | CCC(=O)c1nc2n(n1)[C@@H](c1ccccc1)C[C@@H]2F (racemic) [Example 13, 1-[rac-(5R,7S)-7-fluoro-5-phenyl-6,7-dihydro-5H-pyrrolo[1,2-b][1,2,4]triazol-2-yl]propan-1-one] |
| 76.7 | CC(=O)c1nc2n(n1)[C@@H](c1ccccc1)C[C@H]2F (racemic) [Example 50, 1-[rac-(5R,7R)-7-fluoro-5-phenyl-6,7-dihydro-5H-pyrrolo[1,2-b][1,2,4]triazol-2-yl]ethanone] |
| 0.3 | O=C(c1nc2n(n1)[C@H](c1ccccc1)C[C@@H]2F)C1(F)CC1 (single isomer, unassigned) [Example 61] |
| 28.7 | O=C(c1nc2n(n1)[C@H](c1ccccc1)C[C@@H]2F)C1(CO)CC1 (racemic) [Example 58, [1-(hydroxymethyl)cyclopropyl]-[rac-(5S,7S)-7-fluoro-5-phenyl-6,7-dihydro-5H-pyrrolo[1,2-b][1,2,4]triazol-2-yl]methanone] |
